In PubChem BioAssay (NCI):
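A five-concentration, 48-hour dose response in 96-well plates underlies each endpoint, interpolated linearly between surrounding concentrations. TGI marks complete inhibition of growth.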 Where a SMILES comes first, the peptide text is derived from it. [ ]: non-standard residue; d: D form. The star is where a group is joined. Cbz = O=C(OCc1ccccc1)*; Aib = CC(C)(N)C(=O)O; OBn = c1ccc(CO*)cc1

What follows are compounds tested on MDA-MB-435 (assay: inhibition of tumour cell growth, NCI panel, 48 h).

| Structure (SMILES) | TGI [µM] |
| --- | --- |
| O=C1c2cccc3cccc(c23)C(=O)N1CCCNCCCCNCCCNCCCN1C(=O)c2cccc3cccc(c23)C1=O | 2 |
| O=c1onc2n1-c1cc(Cl)ccc1C(=S)N1CSCC21 (stereo unspecified) | > 100 |
| OC(C#CCN1CCCC1)(c1ccccc1)c1ccccc1Cl (stereo unspecified) | 51.5 |
| CCc1n[nH]c(=O)n1-c1ccc2ccccc2c1 | > 100 |
| CSc1nc2c(c(N(C)C)n1)C(O)n1c(nc3ccccc31)S2 (stereo unspecified) | > 100 |
| O=C1CSC2(CC(/C=C/c3cccs3)=NN2c2cccc(S(=O)(=O)O)c2)N1c1nc2ccccc2s1 (stereo unspecified) | > 100 |
| COc1ccc(-c2nc3ccccc3c(=S)n2OC(C)=O)cc1 | > 25 |
| O=C(c1ccccc1)c1ccc2c(c1)NC(=O)c1ccccc1SSc1ccccc1C(=O)N2 | > 100 |
| CCCCOCCOC1=C(Cl)C(=O)c2c(O)ccc(O)c2C1=O | 1.07 |
| CC1=C(C#N)c2nc3ccccc3n2C(=O)C1(C)CCO (stereo unspecified) | > 100 |
| CCN(CC)c1ccc(/C=C/c2ccnc3ccccc23)cc1 | > 100 |
| CC(C)(C)N=C(N)NC#N | > 100 |
| CN1CCN(Cc2cc3c(nn2)-c2ccccc2C3=O)CC1 | 50.2 |
| CC1(C)CCc2c(ccc(C(=O)/C=C/c3ccc(O)cc3)c2O)O1 | 19.9 |
| Cc1nc2ccccc2c(-n2cccn2)c1CCn1cccn1 | > 100 |
| C/C1=C\[C@H](C)C[C@H](C)OC(=O)[C@H](C)NC(=O)[C@@H](Cc2ccc(O)c(Br)c2)N(C)C(=O)[C@H](C)NC(=O)[C@@H](C)C1 | > 25 |
| CC(C)C1=CC23CCC4C(C)(C(=O)O)CCCC4(C)C2CC1C1C(=O)N(CCCCCCN2C(=O)C4C5CC6C7(C)CCCC(C)(C(=O)O)C7CCC6(C=C5C(C)C)C4C2=O)C(=O)C13 (stereo unspecified) | 17.8 |
| COC1OC2COC(c3ccccc3)OC2C(O)C1OC(=S)c1ccccc1 (stereo unspecified) | 4.37 |
| COc1cc2c(cc1OCCCN1C(=O)c3cccc4cccc(c34)C1=O)N=C[C@@H]1CCCN1C2=O | > 100 |
| COC(=O)c1ccccc1CC1Cc2cccc(C)c2C1=O (stereo unspecified) | 50.8 |
| COc1ccc(/C=N/NC(=O)c2ccc(O)c(CN(C)C)c2)cc1 | > 100 |

What follows are compounds tested on HCT-116 colon (assay: inhibition of tumour cell growth, NCI panel, 48 h).

| Structure (SMILES) | TGI [µM] |
| --- | --- |
| C=CC1(C)CC(=O)C2(O)C(C)(O1)C(OC(C)=O)C(O)C1C(C)(C)CCC(O)C12C (stereo unspecified) | > 150 |
| C=C(CN(C)C)C(=O)c1ccc(C(=O)C(=C)CN(C)C)cc1 | > 100 |
| CO/N=C(/C(=O)OC)c1ccccc1COc1ccccc1C(F)(F)F | > 100 |
| COc1cc(Nc2ccc3c(c2)CCC3)nc(OC)n1 | > 100 |
| Cc1cc(C)nc(NC(=S)Nc2ccc([N+](=O)[O-])cc2)c1 | > 100 |
| CCOC(=O)c1c2cccccc-2nc1Nc1cccc2c(C)ccnc12 | > 10 |
| Cc1c2c(c(C)n1-c1ccccc1)C(=O)N(CCN1CCN(c3cccc(C(F)(F)F)c3)CC1)C2=O | > 100 |
| O[C@H]1[C@H](O)[C@@H](O)CN2CC[C@H](O)[C@H]12 | > 100 |
| Clc1sc(Cl)c2c1[C@@H](Cl)C[C@@H]2Br | > 100 |
| O=C(OCC(Cl)(Cl)Cl)N1CC[C@H](C2CCCCC2)C1 | 31.6 |
| CC(NC(=O)C(C)(C)NC(=O)C(CC(=O)OCc1ccccc1)NC(=O)OCc1ccccc1)C(N)=O (stereo unspecified) (Cbz-Asp(OBn)-[Aib]-Ala-NH2; configuration not given here) | > 100 |
| c1ccc(C(C(=Nc2ccc(Cc3ccc(N=C(C(c4ccccc4)c4ccccc4)N4CC4)cc3)cc2)N2CC2)c2ccccc2)cc1 | > 100 |
| C=C(C)CNCCN | > 100 |
| Cc1ccnc(NC(=S)Nc2ccc([N+](=O)[O-])cc2)c1 | > 100 |
| O=C(CN1C(=O)CC(c2ccccc2)(c2ccccc2)C1=O)N1CCN(CCO)CC1 | > 100 |
| CC(C)(CO)CNc1nc(N)nc(Cl)c1/C=N/O | > 100 |
| COc1ccc2oc(=N)c(C(=O)Nc3ccccc3)cc2c1 | > 100 |
| O=C1c2cccc3cccc(c23)C(=O)N1CCCNCCCCNCCCNCCCN1C(=O)c2cccc3cccc(c23)C1=O | 1.57 |
| O=c1onc2n1-c1cc(Cl)ccc1C(=S)N1CSCC21 (stereo unspecified) | > 100 |
| COc1cc(C2c3cc4c(cc3[C@@H](Nc3ccccc3)C3COC(=O)[C@H]23)OCO4)cc(OC)c1O (stereo partly specified) | 6.27 |
| OC(C#CCN1CCCC1)(c1ccccc1)c1ccccc1Cl (stereo unspecified) | 85.2 |
| CCc1n[nH]c(=O)n1-c1ccc2ccccc2c1 | > 100 |
| CSc1nc2c(c(N(C)C)n1)C(O)n1c(nc3ccccc31)S2 (stereo unspecified) | > 62.1 |
| O=C1NC(O)CCN1C1OC(CO)C(O)C1O (stereo unspecified) | > 141 |
| O=C1CSC2(CC(/C=C/c3cccs3)=NN2c2cccc(S(=O)(=O)O)c2)N1c1nc2ccccc2s1 (stereo unspecified) | > 100 |
| COc1ccc(-c2nc3ccccc3c(=S)n2OC(C)=O)cc1 | > 25 |
| O=C(c1ccccc1)c1ccc2c(c1)NC(=O)c1ccccc1SSc1ccccc1C(=O)N2 | > 100 |
| CCCCOCCOC1=C(Cl)C(=O)c2c(O)ccc(O)c2C1=O | 0.841 |
| CC1=C(C#N)c2nc3ccccc3n2C(=O)C1(C)CCO (stereo unspecified) | > 100 |
| CCN(CC)c1ccc(/C=C/c2ccnc3ccccc23)cc1 | > 100 |
